According to paper PMC5218480 (PLoS ONE, 2017):

Tested on: MV-4-11 cells
Experiment: Gene expression microarray analysis (Affymetrix PrimeView) and GSEA
Assay type: cell-based, human
Parameters: RFU PODN (11730768_x_at) / Fold change /veh PODN (11730768_x_at) / RFU LINC00158 (11744669_a_at) / Fold change /veh LINC00158 (11744669_a_at) / RFU DUSP10 (11751237_a_at) / Fold change /veh DUSP10 (11751237_a_at) / RFU ID3 (11757404_x_at) / Fold change /veh ID3 (11757404_x_at) / RFU PLEKHG5 (11737974_s_at) / Fold change /veh PLEKHG5 (11737974_s_at) / RFU LRRC4B (11730491_at) / Fold change /veh LRRC4B (11730491_at) / RFU GIMAP4 (11747438_a_at) / Fold change /veh GIMAP4 (11747438_a_at) / RFU KRT8 (11758183_x_at) / Fold change /veh KRT8 (11758183_x_at) / RFU CNN1 (11734310_a_at) / Fold change /veh CNN1 (11734310_a_at) / RFU VPS37D (11726825_at) / Fold change /veh VPS37D (11726825_at) / RFU C10orf10 (11716522_x_at) / Fold change /veh C10orf10 (11716522_x_at) / RFU KIR2DL2 /// KIR2DL4 /// KIR2DL5A /// KIR2DL5B /// KIR2DS1 /// KIR2DS2 /// KIR2DS3 /// KIR2DS4 /// KIR3DL3 /// KIR3DL3 /// KIR3DS1 (11738374_at) / Fold change /veh KIR2DL2 /// KIR2DL4 /// KIR2DL5A /// KIR2DL5B /// KIR2DS1 /// KIR2DS2 /// KIR2DS3 /// KIR2DS4 /// KIR3DL3 /// KIR3DL3 /// KIR3DS1 (11738374_at) / RFU C1QL1 (11718748_at) / Fold change /veh C1QL1 (11718748_at) / RFU TMPRSS4 (11747572_a_at) / Fold change /veh TMPRSS4 (11747572_a_at) / RFU HAMP (11756126_x_at) / Fold change /veh HAMP (11756126_x_at) / RFU RNFT2 (11725882_a_at) / Fold change /veh RNFT2 (11725882_a_at) / RFU NR4A2 (11747474_a_at) / Fold change /veh NR4A2 (11747474_a_at) / RFU ABCC12 (11746883_a_at) / Fold change /veh ABCC12 (11746883_a_at) / RFU TMEM136 (11760407_x_at) / Fold change /veh TMEM136 (11760407_x_at) / RFU CLDN22 /// WWC2 (11732394_at) / Fold change /veh CLDN22 /// WWC2 (11732394_at) / RFU HLA-DPB1 (11760878_x_at) / Fold change /veh HLA-DPB1 (11760878_x_at) / RFU SPINT1 (11716480_a_at) / Fold change /veh SPINT1 (11716480_a_at) / RFU GAP43 (11754022_s_at) / Fold change /veh GAP43 (11754022_s_at) / RFU A4GNT (11735810_at) / Fold change /veh A4GNT (11735810_at) / RFU PRB3 (11715151_x_at) / Fold change /veh PRB3 (11715151_x_at) / RFU TUBB4B (11761932_at) / Fold change /veh TUBB4B (11761932_at) / RFU CAPN14 (11732068_a_at) / Fold change /veh CAPN14 (11732068_a_at) / RFU TMCC2 (11721928_a_at) / Fold change /veh TMCC2 (11721928_a_at) / RFU IRGQ (11745062_a_at) / Fold change /veh IRGQ (11745062_a_at) / RFU FAM174B (11720279_a_at) / Fold change /veh FAM174B (11720279_a_at) / RFU TMPRSS4 (11748680_a_at) / Fold change /veh TMPRSS4 (11748680_a_at) / RFU FAM212B (11763350_a_at) / Fold change /veh FAM212B (11763350_a_at) / RFU PLEKHG5 (11743358_a_at) / Fold change /veh PLEKHG5 (11743358_a_at) / RFU ZSCAN30 (11745921_a_at) / Fold change /veh ZSCAN30 (11745921_a_at) / RFU CMKLR1 (11741424_a_at) / Fold change /veh CMKLR1 (11741424_a_at) / RFU LOC101060620 /// MAPK8IP1 (11723275_at) / Fold change /veh LOC101060620 /// MAPK8IP1 (11723275_at) / RFU SPTSSB (11747773_x_at) / Fold change /veh SPTSSB (11747773_x_at) / RFU PRSS12 (11739890_at) / Fold change /veh PRSS12 (11739890_at) / RFU BIN1 (11741810_x_at) / Fold change /veh BIN1 (11741810_x_at) / RFU WNT11 (11732464_a_at) / Fold change /veh WNT11 (11732464_a_at) / RFU C10orf10 (11716521_a_at) / Fold change /veh C10orf10 (11716521_a_at) / RFU C5orf56 (11738089_at) / Fold change /veh C5orf56 (11738089_at) / RFU CYB561 (11721691_x_at) / Fold change /veh CYB561 (11721691_x_at) / RFU ANKRD19P (11752326_a_at) / Fold change /veh ANKRD19P (11752326_a_at) / RFU OR2T12 /// OR2T33 /// OR2T8 (11738714_s_at) / Fold change /veh OR2T12 /// OR2T33 /// OR2T8 (11738714_s_at) / RFU VCAN (11748164_a_at) / Fold change /veh VCAN (11748164_a_at) / RFU JSRP1 (11732532_at) / Fold change /veh JSRP1 (11732532_at) / RFU KRTAP10-11 (11738290_x_at) / Fold change /veh KRTAP10-11 (11738290_x_at) / RFU MYO3A (11730013_a_at) / Fold change /veh MYO3A (11730013_a_at) / RFU EBF3 (11725865_a_at) / Fold change /veh EBF3 (11725865_a_at) / RFU CAMK2N1 (11719241_x_at) / Fold change /veh CAMK2N1 (11719241_x_at) / RFU C5orf56 (11738088_a_at) / Fold change /veh C5orf56 (11738088_a_at) / RFU OLFML3 (11715873_a_at) / Fold change /veh OLFML3 (11715873_a_at) / RFU LOC100653217 /// NTM (11731650_a_at) / Fold change /veh LOC100653217 /// NTM (11731650_a_at) / RFU MAPK11 (11762145_a_at) / Fold change /veh MAPK11 (11762145_a_at) / RFU FIZ1 (11724087_x_at) / Fold change /veh FIZ1 (11724087_x_at) / RFU OASL (11726364_x_at) / Fold change /veh OASL (11726364_x_at) / RFU SOX15 (11748057_x_at) / Fold change /veh SOX15 (11748057_x_at) / RFU CD79A (11719716_a_at) / Fold change /veh CD79A (11719716_a_at) / RFU HIST1H1D (11736915_at) / Fold change /veh HIST1H1D (11736915_at) / RFU CASKIN2 (11723855_a_at) / Fold change /veh CASKIN2 (11723855_a_at) / RFU LOC730098 (11760151_x_at) / Fold change /veh LOC730098 (11760151_x_at) / RFU OR4N2 (11742367_at) / Fold change /veh OR4N2 (11742367_at) / RFU PRRT2 (11749266_a_at) / Fold change /veh PRRT2 (11749266_a_at) / RFU SNX32 (11753110_a_at) / Fold change /veh SNX32 (11753110_a_at) / RFU CDHR5 (11726645_a_at) / Fold change /veh CDHR5 (11726645_a_at) / RFU RCAN1 (11760418_a_at) / Fold change /veh RCAN1 (11760418_a_at) / RFU FAM167A (11723789_a_at) / Fold change /veh FAM167A (11723789_a_at) / RFU FAM26E (11764081_at) / Fold change /veh FAM26E (11764081_at) / RFU ISYNA1 (11749810_s_at) / Fold change /veh ISYNA1 (11749810_s_at) / RFU ACY1 (11761880_at) / Fold change /veh ACY1 (11761880_at) / RFU 11764098_at / Fold change /veh 11764098_at / RFU SAMD14 (11745864_x_at) / Fold change /veh SAMD14 (11745864_x_at) / RFU NPB (11741838_a_at) / Fold change /veh NPB (11741838_a_at) / RFU TMPRSS6 (11731388_a_at) / Fold change /veh TMPRSS6 (11731388_a_at) / RFU KRTAP10-2 (11738614_at) / Fold change /veh KRTAP10-2 (11738614_at) / RFU ARHGAP8 /// PRR5-ARHGAP8 (11727945_x_at) / Fold change /veh ARHGAP8 /// PRR5-ARHGAP8 (11727945_x_at) / RFU KRTAP5-7 /// NADSYN1 (11734609_at) / Fold change /veh KRTAP5-7 /// NADSYN1 (11734609_at) / RFU RASL12 (11751679_a_at) / Fold change /veh RASL12 (11751679_a_at) / RFU CDKN2B (11736163_a_at) / Fold change /veh CDKN2B (11736163_a_at) / RFU PRF1 (11729649_at) / Fold change /veh PRF1 (11729649_at) / RFU, ZNF638 /// ZNF638-IT1 / Fold change vs veh, ZNF638 /// ZNF638-IT1 / RFU, PANK3 / Fold change vs veh, PANK3 / RFU, SH3YL1 / Fold change vs veh, SH3YL1 / RFU, ZEB2 / Fold change vs veh, ZEB2 / RFU, NRIP1 / Fold change vs veh, NRIP1 / RFU, PTTG1IP / Fold change vs veh, PTTG1IP / RFU, CAPN2 / Fold change vs veh, CAPN2 / RFU, MED14 / Fold change vs veh, MED14 / RFU, SNORA58 / Fold change vs veh, SNORA58 / RFU, C1orf63 / Fold change vs veh, C1orf63 / RFU, LRRFIP1 / Fold change vs veh, LRRFIP1 / RFU, NDUFAF7 / Fold change vs veh, NDUFAF7 / RFU, SLC12A2 / Fold change vs veh, SLC12A2 / RFU, IBTK / Fold change vs veh, IBTK / RFU, ESF1 / Fold change vs veh, ESF1 / Fold change vs veh, TMEM50B / RFU, TAOK1 / Fold change vs veh, TAOK1 / RFU, ACBD3 / Fold change vs veh, ACBD3 / RFU, TMA16 / Fold change vs veh, TMA16 / RFU, RWDD3 / Fold change vs veh, RWDD3 / RFU, BCAT1 / Fold change vs veh, BCAT1 / RFU, EDEM3 / Fold change vs veh, EDEM3 / RFU, TMEM33 / Fold change vs veh, TMEM33 / RFU, WDR75 / Fold change vs veh, WDR75 / RFU, AHCTF1 / Fold change vs veh, AHCTF1 / RFU, TFRC / Fold change vs veh, TFRC / RFU, ZDHHC17 / Fold change vs veh, ZDHHC17 / RFU, NOM1 / Fold change vs veh, NOM1 / RFU, ARL8B / Fold change vs veh, ARL8B / RFU, ZBTB11 / Fold change vs veh, ZBTB11 / RFU, TAMM41 / Fold change vs veh, TAMM41 / RFU, KIAA1704 /// LOC100996395 / Fold change vs veh, KIAA1704 /// LOC100996395 / RFU, ING1 / Fold change vs veh, ING1 / RFU, TRMT61B / Fold change vs veh, TRMT61B / RFU, FUBP3 / Fold change vs veh, FUBP3 / RFU, TP53 / Fold change vs veh, TP53 / RFU, TNKS2 / Fold change vs veh, TNKS2 / RFU, ZFP14 / Fold change vs veh, ZFP14 / RFU, ACTR2 / Fold change vs veh, ACTR2 / RFU, PPP3R1 / Fold change vs veh, PPP3R1 / RFU, PIK3R1 / Fold change vs veh, PIK3R1 / RFU, HNRNPA1 / Fold change vs veh, HNRNPA1 / RFU, RNF170 / Fold change vs veh, RNF170 / RFU, ZNF28 / Fold change vs veh, ZNF28 / RFU, RNGTT / Fold change vs veh, RNGTT / RFU, OGT / Fold change vs veh, OGT / RFU, BRD1 / Fold change vs veh, BRD1 / RFU, MARS / Fold change vs veh, MARS / RFU, ZNF655 / Fold change vs veh, ZNF655 / RFU, FAHD1 / Fold change vs veh, FAHD1 / RFU, BDP1 / Fold change vs veh, BDP1 / RFU, LRRCC1 / Fold change vs veh, LRRCC1 / RFU, ARID1A / Fold change vs veh, ARID1A / RFU, ZNF146 / Fold change vs veh, ZNF146 / RFU, ZNF330 / Fold change vs veh, ZNF330 / RFU, GPN3 / Fold change vs veh, GPN3 / RFU, C9orf123 / Fold change vs veh, C9orf123 / RFU, N4BP2L2 / Fold change vs veh, N4BP2L2 / RFU, ARFIP1 / Fold change vs veh, ARFIP1 / RFU, FAM179B / Fold change vs veh, FAM179B / RFU, BCL10 / Fold change vs veh, BCL10 / RFU, UHRF1BP1L / Fold change vs veh, UHRF1BP1L / RFU, BET1 / Fold change vs veh, BET1 / RFU, CNOT2 / Fold change vs veh, CNOT2 / RFU, ZNF268 / Fold change vs veh, ZNF268 / Fold change vs veh, ZNF507 / RFU, DGCR2 / Fold change vs veh, DGCR2 / RFU, WDSUB1 / Fold change vs veh, WDSUB1 / Fold change vs veh, HSP90B1 /// MIR3652 / RFU, ADSS / Fold change vs veh, ADSS / RFU, GK / Fold change vs veh, GK / RFU, ZNF148 / Fold change vs veh, ZNF148 / RFU, TAF9 / Fold change vs veh, TAF9 / RFU, SLC1A5 / Fold change vs veh, SLC1A5 / RFU, SLMO2 / Fold change vs veh, SLMO2 / RFU, ABCC4 / Fold change vs veh, ABCC4 / RFU, LOC101060439 /// RAP1B / Fold change vs veh, LOC101060439 /// RAP1B / RFU, RFX7 / Fold change vs veh, RFX7 / RFU, GTPBP10 / Fold change vs veh, GTPBP10 / RFU, CNEP1R1 / Fold change vs veh, CNEP1R1 / RFU, BIVM-ERCC5 /// ERCC5 / Fold change vs veh, BIVM-ERCC5 /// ERCC5 / RFU, ILF3 / Fold change vs veh, ILF3 / RFU 11762660_at / Fold change /veh 11762660_at / RFU VCAN (11757783_s_at) / Fold change /veh VCAN (11757783_s_at) / RFU DDX43 (11728927_at) / Fold change /veh DDX43 (11728927_at) / RFU KRT8 (11758188_x_at) / Fold change /veh KRT8 (11758188_x_at) / RFU NKD1 (11759106_at) / Fold change /veh NKD1 (11759106_at) / RFU SRD5A1 (11742802_a_at) / Fold change /veh SRD5A1 (11742802_a_at) / RFU TPSAB1 /// TPSB2 (11721975_s_at) / Fold change /veh TPSAB1 /// TPSB2 (11721975_s_at) / RFU GSTM3 (11746129_a_at) / Fold change /veh GSTM3 (11746129_a_at) / RFU IL23R (11737362_x_at) / Fold change /veh IL23R (11737362_x_at) / RFU TMEM51 (11727254_a_at) / Fold change /veh TMEM51 (11727254_a_at) / RFU PIWIL2 (11732686_x_at) / Fold change /veh PIWIL2 (11732686_x_at) / RFU ORM1 (11744905_x_at) / Fold change /veh ORM1 (11744905_x_at) / RFU CCDC152 (11743942_at) / Fold change /veh CCDC152 (11743942_at) / RFU ECM1 (11717891_a_at) / Fold change /veh ECM1 (11717891_a_at) / RFU IL23R (11748794_a_at) / Fold change /veh IL23R (11748794_a_at) / RFU TNFAIP8L3 (11732012_x_at) / Fold change /veh TNFAIP8L3 (11732012_x_at) / RFU MBOAT4 (11741988_at) / Fold change /veh MBOAT4 (11741988_at) / RFU 11764193_at / Fold change /veh 11764193_at / RFU TMEM53 (11763286_at) / Fold change /veh TMEM53 (11763286_at) / RFU MAGEB2 (11727129_at) / Fold change /veh MAGEB2 (11727129_at) / RFU TMEM200A (11744735_a_at) / Fold change /veh TMEM200A (11744735_a_at) / RFU CCDC152 (11751479_a_at) / Fold change /veh CCDC152 (11751479_a_at) / RFU FAM211A (11726209_a_at) / Fold change /veh FAM211A (11726209_a_at) / RFU RGS16 (11746705_a_at) / Fold change /veh RGS16 (11746705_a_at) / RFU VCAN (11755009_s_at) / Fold change /veh VCAN (11755009_s_at) / RFU RHOB (11743442_s_at) / Fold change /veh RHOB (11743442_s_at) / RFU RGS16 (11720943_a_at) / Fold change /veh RGS16 (11720943_a_at) / RFU RGS16 (11720944_at) / Fold change /veh RGS16 (11720944_at) / RFU, VPS4B / Fold change vs veh, VPS4B / RFU, CREB1 / Fold change vs veh, CREB1 / RFU, DNAJC13 / Fold change vs veh, DNAJC13 / RFU, GNAQ / Fold change vs veh, GNAQ / RFU, CDK5R1 / Fold change vs veh, CDK5R1 / RFU, ZRANB3 / Fold change vs veh, ZRANB3 / RFU, CUL4A / Fold change vs veh, CUL4A / RFU, CCNY / Fold change vs veh, CCNY / RFU, UFL1 / Fold change vs veh, UFL1 / RFU, COG3 / Fold change vs veh, COG3 / RFU, DIAPH2 / Fold change vs veh, DIAPH2 / RFU, SKA2 / Fold change vs veh, SKA2 / RFU, AFF3 / Fold change vs veh, AFF3 / RFU, LMF1 / Fold change vs veh, LMF1 / RFU, IPO11 / Fold change vs veh, IPO11 / RFU, DFFB / Fold change vs veh, DFFB / RFU, FOXP1 / Fold change vs veh, FOXP1 / RFU, CARD8 / Fold change vs veh, CARD8 / RFU, STRN3 / Fold change vs veh, STRN3 / RFU, ADK / Fold change vs veh, ADK / RFU, RASSF2 / Fold change vs veh, RASSF2 / RFU, WIPF1 / Fold change vs veh, WIPF1 / RFU, LARP1B / Fold change vs veh, LARP1B / RFU, RASA1 / Fold change vs veh, RASA1 / RFU, RB1 / Fold change vs veh, RB1 / RFU, PPFIA1 / Fold change vs veh, PPFIA1 / RFU, MAT2A / Fold change vs veh, MAT2A / RFU, CCT5 / Fold change vs veh, CCT5 / RFU, WDR92 / Fold change vs veh, WDR92 / RFU, CUX1 / Fold change vs veh, CUX1 / RFU, TTC7A / Fold change vs veh, TTC7A / RFU, TMEM135 / Fold change vs veh, TMEM135 / RFU, DEPTOR / Fold change vs veh, DEPTOR / RFU, CPM / Fold change vs veh, CPM / RFU, DNAJB6 / Fold change vs veh, DNAJB6 / RFU, CACNA2D3 / Fold change vs veh, CACNA2D3 / RFU, DTX4 / Fold change vs veh, DTX4 / RFU, TFCP2 / Fold change vs veh, TFCP2 / RFU, GMCL1 /// GMCL1P1 / Fold change vs veh, GMCL1 /// GMCL1P1 / RFU, AEBP2 / Fold change vs veh, AEBP2 / RFU, SNHG1 /// SNORD22 /// SNORD25 /// SNORD26 /// SNORD27 /// SNORD28 /// SNORD29 /// SNORD31 / Fold change vs veh, SNHG1 /// SNORD22 /// SNORD25 /// SNORD26 /// SNORD27 /// SNORD28 /// SNORD29 /// SNORD31 / Fold change (Aza/veh), C12orf56 (ProbeSet 11735607_a_at) / Fold change (ACY-1035/veh), C12orf56 (ProbeSet 11735607_a_at) / Fold change (Aza/veh), FGFR1OP (ProbeSet 11751329_s_at) / Fold change (ACY-1035/veh), FGFR1OP (ProbeSet 11751329_s_at) / Fold change (Aza/veh), VPS36 (ProbeSet 11739960_a_at) / Fold change (ACY-1035/veh), VPS36 (ProbeSet 11739960_a_at) / RFU SYPL1 (11715823_x_at) / Fold change /veh SYPL1 (11715823_x_at) / RFU IGFBP7 (11715501_s_at) / Fold change /veh IGFBP7 (11715501_s_at) / RFU REEP3 (11722064_at) / Fold change /veh REEP3 (11722064_at) / RFU IGLL1 (11728026_x_at) / Fold change /veh IGLL1 (11728026_x_at): dose or concentration left out as unconfirmed
Details: MV-4-11 cells, 48 hours

Nc1ccc(-c2cccs2)cc1NC(=O)c1ccc2c(c1)cc(C1CC1)n2CCN1CCOCC1 [ACY-1035]
Fold change /veh SRD5A1 (11742802_a_at): 1.16
